Tests used:
[1] = test system: five planktonic species of methicillin resistant S. aureous (MRSA); details: 1,600 ppm hours of gNO; cited from earlier work
P. aeruginosa = details: cited from earlier work
inflammatory cytokines = assay: Phase I safety study: plasma cytokines by cytometric bead array; assay type: in vivo, human; details: 160 ppm gNO inhalation
Protocol: (§1) After obtaining informed consent, treatment was initiated within 5 days of enrollment. Subjects were housed in a hospital ward and received 160 ppm gNO for 30 minutes every four hours (Q4h), five times a day, for five consecutive days by inhalation. Subjects returned for follow-up evaluations 3, 7 and 21 days after the final gNO administration. Subject safety was determined by monitoring vital signs, methemoglobin levels, lung function, blood chemistry, hematology, prothrombin time, inflammatory cytokine/chemokines levels and endothelial activation. These parameters were compared to baseline and at various time-points during and after gNO administration.
Hematological assessment included a complete blood count and differentials (hemoglobin, hematocrit, red blood cell count, white blood cell count, white blood cell differential, and platelet count) were obtained in order to monitor blood chemistry, hematology and inflammation measurements. The blood chemistry profile included serum creatinine, and liver function tests such as aspartate aminotransferase (AST) serum glutamic oxaloacetic transaminase (SGOT), alkaline phosphatase, and gamma-glutamyl transferase (GGT). The effect of gNO on coagulation was determined by the prothrombin time (PT) and its derived measures of prothrombin ratio (PR) and international normalized ratio (INR). Heparinized plasma was collected at baseline and on days 1, 2, 4, and 5 of gNO administration, and on follow-up days 3, 7 and 21 and frozen at −80° C. Plasma cytokine levels were assessed using the human inflammation cytokine bead array kit (BD Bioscience, Canada). Plasma levels of angiopoietin Ang-1 and Ang-2 were determined by ELISA (R&D Systems, USA).
To assess whether gNO inhalation may cause inflammation or endothelial activation cytokines and the vascular endothelium activation factors Ang-1 and Ang-2 were quantified in peripheral plasma at baseline at various time points thereafter.

[2] = test system: all microorganisms tested; assay: Bactericidal effect of 200 ppm gNO, whole panel of microbes (average / all tested); assay type: cell-based; details: saline, average over the bacteria of Table 1
Description: A similar procedure was used to determine the time required to induce an effective bactericidal effect with 200 parts per million gNO, a concentration just above the dose used in the dose-ranging study presented hereinabove, on a representative collection of drug resistant gram-positive and gram-negative strains of bacteria associated with clinical infection.
A successful bactericidal effect was defined as a decrease in bacteria greater than 3 log10 CFU/mL. Further, C. albicans, Methicillin Resistant S. aureus (MRSA), a particularly resistant strain of P. aeruginosa from a cystic fibrosis patient, Group B Streptococcus, and M. smegmatis were also included to evaluate if yeasts, a multi-drug resistant strain of bacteria and actinomycetes have a similar response. These bacteria represent a comprehensive variety of drug resistant bacterial pathogens that contribute to both respiratory and wound infections. The results from these studies laid the foundation for use of gNO at a concentration higher than 160 ppm as an antibacterial agent, specifically for use against bacteria associated with clinical infections.
For this study, saline was selected as a suspension media because it would not mask the direct effect of gNO as a bactericidal, whereas fully supplemented growth medium might introduce external variables (e.g., buffer or react with gNO). Other media might also provide metabolites and replenish nutrients that produce enzymes that protect bacteria from oxidative and nitrosative damage, thereby masking the effect of gNO. […] In saline, the colonies were static but remained viable. These conditions are similar to the approach previously used in animal models.
Without exception, every bacteria challenged with 200 ppm gNO had at least a 3 log10 reduction in CFU/mL. […] The latent period was then followed by an abrupt death of all cells; gram negative and gram positive bacteria, antibiotic resistant bacterial strains, yeast and mycobacteria all were susceptible to 200 ppm gNO. […]

E. Coli = details: 200 ppm gNO, saline; cited from earlier work
S. aureus = details: cited from earlier work
[3] = test system: influenza A/victoria/H3N2; details: 160 ppm gNO, cited from earlier work
S. maltophilia = details: 200 ppm gNO, saline; cited from earlier work
[4] = rats, gNO concentrations below 200 ppm, 6 hours/day for 28 days; cited from earlier work
[5] = test system: human respiratory syncytial virus (rgRSV30); assay: RSV exposure to 160 ppm gNO for 30 minutes, plaque/fluorescence assay; assay type: cell-based; details: single 30 minutes exposure to 160 ppm gNO
Klebsiella sp.#2 = details: 200 ppm gNO, saline; cited from earlier work
[6] = Phase I safety study: pulmonary function tests; assay type: in vivo, human
Protocol: as §1
Subjects underwent full pulmonary function tests (PFT), including lung diffusing capacity (DLCO) by a trained technician utilizing a calibrated pulmonary function system (Jaeger MasterScreen, VIASYS Healthcare, USA) on screening and days 2, 8, 12 and 26. Spirometry test (Microloop by Micro Medical, England) was performed on days 1, 3 and 4. Effect of gNO on lung function and DLCO was determined by changes from baseline, treatment days and follow up days.

Acinetobacter sp. = details: 200 ppm gNO, saline; cited from earlier work
[7] = 50-160 ppm gNO, solid media, vs medical air
[8] = gNO greater than 120 ppm, agar plates

[N]=O [gNO, nitric oxide]
population of planktonic MRSA strains [1]: A reduction in the population of all five MRSA planktonic strains was observed
survival (downward bactericidal trend towards) (P. aeruginosa; [7]): 5-10%
reduction of colony formation (P. aeruginosa; [8]): greater than 90%
time required to achieve the >90% reduction of colony formation (P. aeruginosa; gNO greater than 120 ppm): 8 to 12 h
plasma IL-1b level versus baseline (inflammatory cytokines): unaffected
plasma IL-6 level versus baseline (inflammatory cytokines): unaffected
plasma IL-8 level versus baseline (inflammatory cytokines): unaffected
plasma IL-10 level versus baseline (inflammatory cytokines): unaffected
plasma IL-12p70 level versus baseline (inflammatory cytokines): unaffected
plasma TNF level versus baseline (inflammatory cytokines): unaffected
LD100, Average [2]: 4.77 h
Latent Period, Average [2]: 2.77 h
−2.5 Log10, Average [2]: 3.82 hours
LD100 (E. Coli): 5 h
Latent Period (E. Coli): 3 h
−2.5 Log10 (E. Coli): 4.2 hours
survival (downward bactericidal trend towards) (S. aureus; [7]): 5-10%
reduction of colony formation (S. aureus; [8]): greater than 90%
time required to achieve the >90% reduction of colony formation (S. aureus; gNO greater than 120 ppm): 8 to 12 h
infectivity ([3]; MDCK plaque assay, A/Victoria/H3N2): reducing the infectivity
anti-viral effect, intermittent versus single exposure ([3]; one 30 minute dose vs three 30 minute treatments Q4h): more evident in the intermittent form of exposure
LD100 (S. maltophilia): 4 h
Latent Period (S. maltophilia): 2 h
−2.5 Log10 (S. maltophilia): 2.8 hours
deaths [4]: No deaths occurred
viral viability ([5]; starting level 500 PFU): substantially nullified
reduction of virus viability (factor) ([5]; starting level 1000 PFU): ~10
reduction of virus viability (factor) ([5]; starting level 2000 PFU): ~10
LD100 (Klebsiella sp.#2): 5 h
Latent Period (Klebsiella sp.#2): 2 h
−2.5 Log10 (Klebsiella sp.#2): 4.1 hours
lung parenchymal injury ([6]; 160 ppm NO, measured by lung function parameters): did not cause lung parenchymal injury
pulmonary function tests, abnormalities ([6]; during and after gNO administration, 160 ppm): did not reveal any abnormalities
DLCO versus baseline ([6]; during the course of the study): did not change from baseline
FEV1 versus baseline ([6]; during the course of the study): did not differ from baseline
forced vital capacity (FVC) versus baseline ([6]; during the course of the study): did not change from baseline
maximum mid-expiratory flow (MMEF) versus baseline ([6]; during the course of the study): did not differ from baseline
residual volume (RV) versus baseline ([6]; during the course of the study): did not change from baseline
total lung capacity (TLC) versus baseline ([6]; during the course of the study): did not change from baseline
LD100 (Acinetobacter sp.): 6 h
Latent Period (Acinetobacter sp.): 4 h
−2.5 Log10 (Acinetobacter sp.): 5 hours

Reference: US20150034084A1, “[…] NITRIC OXIDE FOR TREATING RESPIRATORY DISEASES” (Advanced Inhalation Therapies (AIT) Ltd., priority 2012, published 2015)
